Measurements from ChEMBL document CHEMBL1139006, “Synthesis and in vitro antibiotic activity of 16-membered 9-O-arylalkyloxime macrolides” (2006).
Converted amounts (≈) assume the structure as drawn.

How the values were obtained:
Assay type in all cases: functional
Streptococcus pneumoniae [1] = experiment: Antibacterial activity against Streptococcus pneumoniae ATCC 6301
Streptococcus pneumoniae [2] = experiment: Antibacterial activity against Streptococcus pneumoniae ATCC 700671
Streptococcus pneumoniae [3] = experiment: Antibacterial activity against macrolide resistant Streptococcus pneumoniae ATCC 700676
Streptococcus pneumoniae [4] = experiment: Antibacterial activity against macrolide resistant Streptococcus pneumoniae ATCC 700677
Streptococcus pneumoniae [5] = experiment: Antibacterial activity against macrolide resistant Streptococcus pneumoniae ATCC 700905
Streptococcus pneumoniae [6] = experiment: Antibacterial activity against macrolide resistant Streptococcus pneumoniae ATCC 700906
Streptococcus pneumoniae [7] = experiment: Antibacterial activity against Streptococcus pneumoniae ATCC 49619
Staphylococcus aureus [8] = experiment: Antibacterial activity against Staphylococcus aureus ATCC 6538p
Staphylococcus aureus [9] = experiment: Antibacterial activity against macrolide resistant Staphylococcus aureus ATCC 33591
Staphylococcus aureus [10] = experiment: Antibacterial activity against macrolide resistant Staphylococcus aureus ATCC 141541
Staphylococcus aureus [11] = experiment: Antibacterial activity against macrolide resistant Staphylococcus aureus ATCC BAA-39
Staphylococcus aureus [12] = experiment: Antibacterial activity against macrolide resistant Staphylococcus aureus ATCC BAA-44
Staphylococcus aureus [13] = experiment: Antibacterial activity against Staphylococcus aureus ATCC 29213
[14] = system: Staphylococcus epidermidis; experiment: Antibacterial activity against Staphylococcus epidermidis ATCC 12228
Enterococcus faecalis = experiment: Antibacterial activity against Enterococcus faecalis ATCC 51575
Haemophilus influenzae [15] = experiment: Antibacterial activity against Haemophilus influenzae ATCC 9006
Haemophilus influenzae [16] = experiment: Antibacterial activity against Haemophilus influenzae ATCC 49766
Haemophilus influenzae [17] = experiment: Antibacterial activity against Haemophilus influenzae EH001
Haemophilus influenzae [18] = experiment: Antibacterial activity against Haemophilus influenzae EH002
Haemophilus influenzae [19] = experiment: Antibacterial activity against Haemophilus influenzae EH003

Row | SMILES | MIC (Streptococcus pneumoniae [1]) [µg/mL] | MIC (Streptococcus pneumoniae [2]) [µg/mL] | MIC (Streptococcus pneumoniae [3]) [µg/mL] | MIC (Streptococcus pneumoniae [4]) [µg/mL] | MIC (Streptococcus pneumoniae [5]) [µg/mL] | MIC (Streptococcus pneumoniae [6]) [µg/mL] | MIC (Streptococcus pneumoniae [7]) [µg/mL] | MIC (Staphylococcus aureus [8]) [µg/mL] | MIC (Staphylococcus aureus [9]) [µg/mL] | MIC (Staphylococcus aureus [10]) [µg/mL] | MIC (Staphylococcus aureus [11]) [µg/mL] | MIC (Staphylococcus aureus [12]) [µg/mL] | MIC (Staphylococcus aureus [13]) [µg/mL] | MIC [14] [µg/mL] | MIC (Enterococcus faecalis) [µg/mL] | MIC (Haemophilus influenzae [15]) [µg/mL] | MIC (Haemophilus influenzae [16]) [µg/mL] | MIC (Haemophilus influenzae [17]) [µg/mL] | MIC (Haemophilus influenzae [18]) [µg/mL] | MIC (Haemophilus influenzae [19]) [µg/mL]
1 | CC[C@H]1OC(=O)C[C@@H](O)[C@H](C)[C@@H](O[C@@H]2O[C@H](C)[C@@H](O)[C@H](N(C)C)[C@H]2O)[C@@H](CC=O)C[C@@H](C)C(=O)/C=C/C(C)=C/C1CO (some centres undefined) | 0.025 (≈ 0.0418 µM) | 0.049 (≈ 0.082 µM) | 0.78 (≈ 1.3 µM) | 6.25 (≈ 10.5 µM) | 0.78 (≈ 1.3 µM) | > 12.5 | 0.098 (≈ 0.164 µM) | 0.39 (≈ 0.652 µM) | > 12.5 | 1.56 (≈ 2.61 µM) | > 12.5 | > 12.5 | 0.78 (≈ 1.3 µM) | 0.39 (≈ 0.652 µM) | > 12.5 | 1.56 (≈ 2.61 µM) | 1.56 (≈ 2.61 µM) | 3.12 (≈ 5.22 µM) | 6.25 (≈ 10.5 µM) | 1.56 (≈ 2.61 µM)
2 | CC[C@H]1OC(=O)[C@H](C)[C@@H](O[C@H]2C[C@@](C)(OC)[C@@H](O)[C@H](C)O2)[C@H](C)[C@@H](O[C@@H]2O[C@H](C)C[C@H](N(C)C)[C@H]2O)[C@](C)(O)C[C@@H](C)C(=O)[C@H](C)[C@@H](O)[C@]1(C)O [ERYTHROMYCIN] | 0.025 (≈ 0.0341 µM) | 0.049 (≈ 0.0668 µM) | 6.25 (≈ 8.52 µM) | 6.25 (≈ 8.52 µM) | 3.12 (≈ 4.25 µM) | > 12.5 | 0.049 (≈ 0.0668 µM) | 0.098 (≈ 0.134 µM) | > 12.5 | – | > 12.5 | > 12.5 | 0.2 (≈ 0.273 µM) | 0.2 (≈ 0.273 µM) | > 12.5 | 1.56 (≈ 2.13 µM) | 6.25 (≈ 8.52 µM) | 3.12 (≈ 4.25 µM) | 6.25 (≈ 8.52 µM) | 3.12 (≈ 4.25 µM)
